Measurements: patent US8937193B2, “Apogossypolone derivatives as anticancer agents” (Sanford-Burnham Medical Research Institute, priority 2009, dated 2015)
Read-outs that look alike come from different tables or passages of the source.

Experiments:
[1] = not given; remark: listed apart in the source
EC50 values of FIG. 3(B) = details: test not named
[2] = format: physicochemical
Excerpt: The chemical stability of solid compounds may be evaluated at room temperature. The stability of the compound was monitored using a combination of HPLC and LCMS.

PPC-1 xenograft tumors = assay: PPC-1 tumor xenograft study in nude mice
Experimental: Female 6-week-old nude mice were purchased from Charles River Laboratories. 5×10^6 PCC-1 cells suspended in 0.2 ml PBS were injected subcutaneously into a flank region of each nude mouse. Tumor bearing mice were size matched (200 mm^3) into treatment and control group, ear tagged, and monitored individually. Tumor volume was measured two to three times weekly by digital calipers (volume=length×width^2/2). All studies use 6 mice per group. […] Control mice received saline. The injections were given three times in first week, twice in second week and once in third week and a total of six injections were administered during the experiment. When all tumors of the control group exceed 2000 mm^3 in volume, the animal experiment was terminated. Tumor growth inhibition ratios (T/C %) were calculated by dividing the average tumor volume in the treatment group by the average tumor volume in the control group.

[3] = administered orally (6a); cited from earlier work
primary CLL cells = assay: Annexin-V apoptosis assay, primary CLL cells; format: cell-based, human
Experimental: The apoptotic activity of the compounds against RS4;11, BP3 and primary CLL cells was assessed by staining with Annexin V-FITC and propidium iodide (PI). Cells were cultured in RPMI 1640 medium (Mediatech Inc., Herndon, Va. 20171) containing 10% fetal bovine serum (Mediatech Inc., Herndon, Va. 20171) and Penicillin/Streptomycin (Mediatech Inc., Herndon, Va. 20171). […] The percentage of viable cells was determined by FITC-Annexin V- and propidium iodide (PI)-labeling, using an Apoptosis Detection kit (BioVision Inc.), and analyzing stained cells by flow cytometry (FACSort; Bectin-Dickinson, Inc.; Mountain View, Calif.). Cells that were annexin-V-negative and PI-negative were considered viable.

Bfl-1 = Bfl-1 (Homo sapiens (Human), UniProt Q16548); assay: Fluorescence polarization competitive binding assay (FPA), Bfl-1; details: displacement of BH3 peptide
Experimental: (§1) For competitive binding assays, 100 nM GST-BCL-XL ΔTM protein was preincubated with the tested compound at varying concentrations in 47.5 μL PBS (pH=7.4) in 96-well black plates at room temperature for 10 min, then 2.5 μL of 100 nM FITC-labeled Bak BH3 peptide was added to produce a final volume of 50 μL. The wild-type and mutant Bak BH3 peptides were included in each assay plate as positive and negative controls, respectively. After 30 min incubation at room temperature, the polarization values in millipolarization units were measured at excitation/emission wavelengths of 480/535 nm with a multilabel plate reader (PerkinElmer). IC50 was determined by fitting the experimental data to a sigmoidal dose-response nonlinear regression model (SigmaPlot 10.0.1, Systat Software, Inc., San Jose, Calif., USA). Data reported are mean of three independent experiments±standard error (SE). […] Fluorescence polarization was measured after 10 min.

Bcl-XL [4] = target: T1, Bcl-XL (Homo sapiens (Human), UniProt Q07817); assay: Fluorescence polarization competitive binding assay (FPA), Bcl-XL; details: displacement of BH3 peptide
Target sequence in this assay (Q07817 1-211): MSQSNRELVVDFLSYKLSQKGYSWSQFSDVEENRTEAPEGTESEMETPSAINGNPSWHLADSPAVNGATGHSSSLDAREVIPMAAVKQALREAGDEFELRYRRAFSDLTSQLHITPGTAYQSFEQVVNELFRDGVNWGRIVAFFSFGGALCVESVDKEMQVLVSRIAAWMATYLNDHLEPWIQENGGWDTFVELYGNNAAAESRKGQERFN
Experimental: as §1

[5] = In vitro plasma stability; details: for Plasma Stability (T = 40 mins): Table 4
Excerpt: (§2) To test the pharmacological properties of the compounds of Formula I, the in vitro plasma stability, microsomal stability, and cell membrane permeability may be determined.

Bcl-XL [6] = target: T1, Bcl-XL; assay: Isothermal titration calorimetry (ITC), Bcl-XL; format: binding
Target sequence in this assay (Q07817 whole entry): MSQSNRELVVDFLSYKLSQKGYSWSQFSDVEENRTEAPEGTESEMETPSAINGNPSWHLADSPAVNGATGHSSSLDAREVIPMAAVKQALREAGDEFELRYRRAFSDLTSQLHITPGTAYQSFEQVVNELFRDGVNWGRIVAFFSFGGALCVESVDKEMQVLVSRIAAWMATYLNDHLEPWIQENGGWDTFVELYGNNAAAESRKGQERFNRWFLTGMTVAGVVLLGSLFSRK

Mcl-1 = Mcl-1 (Homo sapiens (Human), UniProt Q07820); assay: Fluorescence polarization competitive binding assay (FPA), Mcl-1; details: displacement of BH3 peptide
Experimental: as §1

Bcl-XL [7] = target: T1, Bcl-XL; assay: 1D 1H-NMR binding assay against Bcl-XL; design: key: +++: Very Active; ++: Active; +: Mild; −: Weak; details: 4-point-rating scale, binding to Bcl-XL
Target sequence in this assay (Q07817 whole entry): as above

Bcl-2 = Bcl-2 (Homo sapiens (Human), UniProt P10415); assay: Fluorescence polarization competitive binding assay (FPA), Bcl-2; details: displacement of BH3 peptide
Experimental: as §1

[8] = In vitro microsomal stability; details: Table 4
Excerpt: as §2

H460 cell line = details: pan-Bcl-2 family inhibitor from literature; cited from earlier work

Sequence of Bcl-2 (P10415 whole entry): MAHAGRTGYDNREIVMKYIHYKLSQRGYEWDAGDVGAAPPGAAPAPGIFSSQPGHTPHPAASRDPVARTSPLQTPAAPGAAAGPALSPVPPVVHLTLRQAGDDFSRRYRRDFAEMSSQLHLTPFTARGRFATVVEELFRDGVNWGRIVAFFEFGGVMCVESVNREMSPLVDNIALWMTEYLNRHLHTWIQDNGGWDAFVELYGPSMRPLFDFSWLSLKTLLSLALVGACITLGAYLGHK
Sequence of Mcl-1 (Q07820 whole entry): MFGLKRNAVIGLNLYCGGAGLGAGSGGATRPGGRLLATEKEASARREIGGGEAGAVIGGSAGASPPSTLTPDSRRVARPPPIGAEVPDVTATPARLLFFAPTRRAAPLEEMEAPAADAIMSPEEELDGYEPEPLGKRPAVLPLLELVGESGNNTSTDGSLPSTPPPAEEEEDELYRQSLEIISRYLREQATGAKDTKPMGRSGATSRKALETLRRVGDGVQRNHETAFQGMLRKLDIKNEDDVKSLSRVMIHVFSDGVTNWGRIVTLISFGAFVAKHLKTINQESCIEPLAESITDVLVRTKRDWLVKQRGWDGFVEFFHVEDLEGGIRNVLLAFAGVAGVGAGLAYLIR
Sequence of Bfl-1 (Q16548 whole entry): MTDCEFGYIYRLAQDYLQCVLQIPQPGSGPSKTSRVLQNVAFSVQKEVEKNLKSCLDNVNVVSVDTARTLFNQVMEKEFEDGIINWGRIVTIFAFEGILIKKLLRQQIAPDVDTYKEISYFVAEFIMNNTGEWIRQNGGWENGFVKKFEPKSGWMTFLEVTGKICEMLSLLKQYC

SMILES | IC50 (Bfl-1) [nM] | IC50 (Bcl-XL [4]) [nM] | Plasma Stability (T = 40 mins) [5] [%] | Kd (Bcl-XL [6]) [nM] | IC50 (Mcl-1) [nM] | 1D-1H NMR (Bcl-XL [7]) | IC50 (Bcl-2) [nM] | also measured
Cc1cc2c(C(C)C)c(O)c(O)cc2c(O)c1-c1c(C)cc2c(C(C)C)c(O)c(O)cc2c1O [Apogossypol] | – | – | – | – | – | – | – | degraded after 1 hour incubation in rat microsomal preparations: 36%; degraded after 1 hour incubation in rat plasma [1]: 47%; EC50 (EC50 values of FIG. 3(B)): 2800 nM; degraded after 60 days at room temperature [2]: ~80%
CC1=C(C2=C(C)C(=O)c3c(cc(O)c(O)c3C(C)C)C2=O)C(=O)c2cc(O)c(O)c(C(C)C)c2C1=O [Compound 6a, 6,6′,7,7′-tetrahydroxy-5,5′-diisopropyl-3,3′-dimethyl-2,2′-binaphthyl-1,1′,4,4′-tetraone, reference compound] | 2170 ± 350 | 630 ± 20 | 77 | 2800 | 540 ± 30 | +++ | 370 ± 20 | average body weight losses during the treatment (PPC-1 xenograft tumors; 50 mg/kg i.p.): 9.3%; weight loss in first week (PPC-1 xenograft tumors; 50 mg/kg i.p. three times in first week): ~5%; maximum tolerated dose (MTD) [3]: above 240 mg/kg; LD50 primary CLL samples (primary CLL cells; comparison of 6c with 6a): > 30 µM; LD50 primary CLL samples (primary CLL cells; two primary CLL samples, one day Annexin-V apoptosis assay): > 30 µM; degraded after 1 hour incubation in rat plasma ([5]; 1 h, rat plasma (preparations)): 23%
CC1=C(C2=C(C)C(=O)c3c(cc(O)c(O)c3CC(C)C)C2=O)C(=O)c2cc(O)c(O)c(CC(C)C)c2C1=O [Compound 6b, 6,6′,7,7′-tetrahydroxy-5,5′-diisobutyl-3,3′-dimethyl-2,2′-binaphthyl-1,1′,4,4′-tetraone] | 1410 ± 110 | 550 ± 60 | 98 | 1500 ± 800 | 470 ± 30 | +++ | 250 ± 20 | Microsomal Stability (T = 40 mins) [8]: 69%
COC1=CC(c2cc3ccccc3[nH]2)=N/C1=C\c1[nH]c(C)cc1C [GX15-070] | – | – | – | – | – | – | – | IC50 (H460 cell line): 3850 nM
